Test: Thioflavin T-test (ThT-test) of physical stability / fibril formation of the formulations
Format: physicochemical
Procedure: Physical stability of the formulations is evaluated by means of the Thioflavin T-test. The physical stability of the different formulations is characterized by their tendency to form fibrils. A method to determine the presence of fibrils is the Thioflavin T-test. The histological thiazole dye Thioflavin T (ThT) is used as an indicator of amyloid fibril formation. The method is based on the fluorescent characteristics of ThT. […] The physical stability of the formulations is evaluated by the ThT-test after storage of the formulation is top filled glass cartridges for various time periods.

physical stability (change in ThT) (Compound 1 adjusted to pH 8.0 before freeze drying, after 1 week and 1 months storage at 37°C): an increase in ThT is seen
physical stability (change in ThT) (Compound 1 adjusted to pH 9.5 and 11.5 before freeze drying, after 1 week and 1 months storage at 37°C): no increase in ThT is seen
physical stability (change in ThT) (formulation manufactured by raising pH above neutral pH (> 8) in the solution containing the drug substance, after 1 month at 37°C): no increase in ThT is seen
Compound: CCCCCCCCCCCCCCCC(=O)N[C@@H](CCC(=O)NCCCC[C@H](NC(=O)[C@H](C)NC(=O)[C@H](C)NC(=O)[C@H](CCC(N)=O)NC(=O)CNC(=O)[C@H](CCC(=O)O)NC(=O)[C@H](CC(C)C)NC(=O)[C@H](Cc1ccc(O)cc1)NC(=O)[C@H](CO)NC(=O)[C@H](CO)NC(=O)[C@@H](NC(=O)[C@H](CC(=O)O)NC(=O)[C@H](CO)NC(=O)[C@@H](NC(=O)[C@H](Cc1ccccc1)NC(=O)[C@@H](NC(=O)CNC(=O)[C@H](CCC(=O)O)NC(=O)[C@H](C)NC(=O)[C@@H](N)Cc1cnc[nH]1)[C@@H](C)O)[C@@H](C)O)C(C)C)C(=O)N[C@@H](CCC(=O)O)C(=O)N[C@@H](Cc1ccccc1)C(=O)N[C@H](C(=O)N[C@@H](C)C(=O)N[C@@H](Cc1c[nH]c2ccccc12)C(=O)N[C@@H](CC(C)C)C(=O)N[C@H](C(=O)N[C@@H](CCCNC(=N)N)C(=O)NCC(=O)N[C@@H](CCCNC(=N)N)C(=O)NCC(=O)O)C(C)C)[C@@H](C)CC)C(=O)O [Compound 1, Arg^34, Lys^26 (N^∈-(γ-Glu(N^α-hexadecanoyl)))-GLP-1 (7-37)]

Source: patent EP1633390B1, “STABILIZED PHARMACEUTICAL GLP-1 PEPTIDE COMPOSITIONS” (NOVO NORDISK A/S, priority 2003, dated 2012)
